Literature values in patent publication US11103547B2, “Methods for disrupting biofilms” (priority 2016, dated 2021).

Tested on: MRSA biofilm
Details: shown previously; positive control

Structure (SMILES): CCCCCCCCCC(=O)N[C@@H](Cc1c[nH]c2ccccc12)C(=O)N[C@H](CC(N)=O)C(=O)N[C@@H](CC(=O)O)C(=O)N[C@@H]1C(=O)NCC(=O)N[C@@H](CCCN)C(=O)N[C@@H](CC(=O)O)C(=O)N[C@H](C)C(=O)N[C@@H](CC(=O)O)C(=O)NCC(=O)N[C@H](CO)C(=O)N[C@@H]([C@H](C)CC(=O)O)C(=O)N[C@@H](CC(=O)c2ccccc2N)C(=O)O[C@@H]1C [Daptomycin]
- disruption of biomass biofilm of MRSA: disrupt biomass biofilm of MRSA
